Test results taken from patent US20240166660A1, “KRAS G12C INHIBITORS” (BeiGene Switzerland GmbH, priority 2021, published 2024).

Target: KRAS (aa 1-169) G12C, C51S, C80L, C118S (Homo sapiens (Human), UniProt P01116, C118S/C51S/C80L/G12C)
Assay: Biochemical functional assay: SOS1-mediated nucleotide exchange of GDP-loaded KRAS G12C, binding to GST-cRaf RBD, FRET readout
Settings: 3 hrs pre-incubation with compound at 24° C., SOS1, GTPyS, inhibition of nucleotide exchange
How it was run: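 GDP-loaded His-tagged KRAS construct preincubated with compound 3 h at 24° C in 25 mM HEPES pH7.5, 10 mM MgCl2, 0.01% Triton X-100; SOS1 (aa 564-1049), GTPγS and GST-cRaf RBD added for 3 h, then anti-His Tb cryptate/anti-GST XL665 for 3 h. HTRF 665/620 ratio; IC50 by four-parameter logistic fit.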

Sequence of KRAS (aa 1-169) G12C, C51S, C80L, C118S (P01116 other isoform, or with tags, fused parts or gaps G12C/C51S/C80L/C118S): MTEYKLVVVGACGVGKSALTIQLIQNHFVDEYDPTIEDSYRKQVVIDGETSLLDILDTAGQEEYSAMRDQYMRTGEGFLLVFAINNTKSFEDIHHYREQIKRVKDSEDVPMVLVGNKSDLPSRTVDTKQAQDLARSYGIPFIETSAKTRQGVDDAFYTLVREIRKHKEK

Structure (SMILES) | IC50
C=C(F)C(=O)N1CCN(c2nc(OC[C@@H]3CCCN3C)nc3cc(-c4ccccc4F)c4ccoc4c23)CC1 [Compound B44, (S)-2-fluoro-1-(4-(4-(2-fluorophenyl)-7-((1-methylpyrrolidin-2-yl)methoxy)furo[2,3-f]quinazolin-9-yl)piperazin-1-yl)prop-2-en-1-one] | 6.35 µM
C=CC(=O)N1CCN(c2nc(OC[C@@H]3CCCN3C)nc3cc(-c4ccccc4F)c4ccoc4c23)CC1 [Compound B45, (S)-1-(4-(4-(2-fluorophenyl)-7-((1-methylpyrrolidin-2-yl)methoxy)furo[2,3-f]quinazolin-9-yl)piperazin-1-yl)prop-2-en-1-one] | 2.02 µM
C=CC(=O)N1CCN(c2nc(OC[C@@H]3CCCN3C)nc3cc(-c4c(O)cccc4F)c4ccoc4c23)CC1 [Compound B46, 1-(4-(4-(2-fluoro-6-hydroxyphenyl)-7-(((S)-1-methylpyrrolidin-2-yl)methoxy)furo[2,3-f]quinazolin-9-yl)piperazin-1-yl)prop-2-en-1-one] | 0.621 µM
C=CC(=O)N1CCN(c2nc(OC3CCCC3N(C)C)nc3cc(-c4cccc5cccc(Cl)c45)c4c(c23)OCCC4)C[C@@H]1CC#N (stereo partly drawn) [Compound B48, 2-((2S)-1-acryloyl-4-(5-(8-chloronaphthalen-1-yl)-8-((2-(dimethylamino)cyclopentyl)oxy)-3,4-dihydro-2H-pyrano[2,3-f]quinazolin-10-yl)piperazin-2-yl)acetonitrile] | 0.014 µM
C=CC(=O)N1CCN(c2nc(OC[C@@H]3CCCN3C)nc3cc(-c4cccc5cccc(Cl)c45)c4ccoc4c23)[C@@H](C)C1 [Compound B49, 1-((S)-4-(4-(8-chloronaphthalen-1-yl)-7-(((S)-1-methylpyrrolidin-2-yl)methoxy)furo[2,3-f]quinazolin-9-yl)-3-methylpiperazin-1-yl)prop-2-en-1-one] | 0.128 µM
C=C(F)C(=O)N1CCN(c2nc(OC3CCCC3N(C)C)nc3cc(-c4cccc5cccc(Cl)c45)c4c(c23)OCCC4)C[C@@H]1CC#N (stereo partly drawn) [Compound B50, 2-((2S)-4-(5-(8-chloronaphthalen-1-yl)-8-((2-(dimethylamino)cyclopentyl)oxy)-3,4-dihydro-2H-pyrano[2,3-f]quinazolin-10-yl)-1-(2-fluoroacryloyl)piperazin-2-yl)acetonitrile] | 0.289 µM
C=CC(=O)N1CC2(CCN(c3nc(OC[C@@H]4CCCN4C)nc4cc(-c5cccc6cccc(Cl)c56)c5ccoc5c34)CC2)C1 [Compound B51, (S)-1-(7-(4-(8-chloronaphthalen-1-yl)-7-((1-methylpyrrolidin-2-yl)methoxy)furo[2,3-f]quinazolin-9-yl)-2,7-diazaspiro[3.5]nonan-2-yl)prop-2-en-1-one] | 1.01 µM
C=CC(=O)N1C[C@H](C)N(c2nc(OC[C@@H]3CCCN3C)nc3cc(-c4cccc5cccc(Cl)c45)c4ccoc4c23)C[C@H]1C [Compound B52, 1-((2R,5S)-4-(4-(8-chloronaphthalen-1-yl)-7-(((S)-1-methylpyrrolidin-2-yl)methoxy)furo[2,3-f]quinazolin-9-yl)-2,5-dimethylpiperazin-1-yl)prop-2-en-1-one] | 0.654 µM
C=C(F)C(=O)N1CCN(c2nc(OC[C@@H]3C[C@@H](F)CN3C)nc3cc(-c4cccc5cccc(Cl)c45)c4c(c23)OCCC4)C[C@@H]1CC#N [Compound B53, 2-((S)-4-(5-(8-chloronaphthalen-1-yl)-8-(((2S,4R)-4-fluoro-1-methylpyrrolidin-2-yl)methoxy)-3,4-dihydro-2H-pyrano[2,3-f]quinazolin-10-yl)-1-(2-fluoroacryloyl)piperazin-2-yl)acetonitrile] | 0.028 µM
C=C(F)C(=O)N1CCN(c2nc(OC[C@@H]3C[C@H](F)CN3C)nc3cc(-c4cccc5cccc(Cl)c45)c4c(c23)OCCC4)C[C@@H]1CC#N [Compound B54, 2-((S)-4-(5-(8-chloronaphthalen-1-yl)-8-(((2S,4S)-4-fluoro-1-methylpyrrolidin-2-yl)methoxy)-3,4-dihydro-2H-pyrano[2,3-f]quinazolin-10-yl)-1-(2-fluoroacryloyl)piperazin-2-yl)acetonitrile] | 0.04 µM
C=C(F)C(=O)N1CCN(c2nc(O[C@@H]3CN(C)C[C@H]3OC)nc3cc(-c4cccc5cccc(Cl)c45)c4c(c23)OCCC4)C[C@@H]1CC#N [Compound B55, 2-((S)-4-(5-(8-chloronaphthalen-1-yl)-8-(((3R,4R)-4-methoxy-1-methylpyrrolidin-3-yl)oxy)-3,4-dihydro-2H-pyrano[2,3-f]quinazolin-10-yl)-1-(2-fluoroacryloyl)piperazin-2-yl)acetonitrile] | 0.134 µM
C=CC(=O)N1CCN(c2nc(OC[C@@H]3CCCN3C)nc3cc(-c4c(C)cccc4C)c4ccoc4c23)CC1 [Compound B56, (S)-1-(4-(4-(2,6-dimethylphenyl)-7-((1-methylpyrrolidin-2-yl)methoxy)furo[2,3-f]quinazolin-9-yl)piperazin-1-yl)prop-2-en-1-one] | 0.632 µM
C=CC(=O)N1CCN(c2nc(OC[C@@H]3CCCN3C)nc3cc(-c4c(F)cccc4Cl)c4ccoc4c23)CC1 [Compound B57, 1-(4-(4-(2-chloro-6-fluorophenyl)-7-(((S)-1-methylpyrrolidin-2-yl)methoxy)furo[2,3-f]quinazolin-9-yl)piperazin-1-yl)prop-2-en-1-one] | 1.02 µM
C=CC(=O)N1CCN(c2nc(OC[C@@H]3CCCN3C)nc3cc(-c4ccccc4C4CC4)c4ccoc4c23)CC1 [Compound B58, (S)-1-(4-(4-(2-cyclopropylphenyl)-7-((1-methylpyrrolidin-2-yl)methoxy)furo[2,3-f]quinazolin-9-yl)piperazin-1-yl)prop-2-en-1-one] | 0.958 µM
C=CC(=O)N1CCN(c2nc(OC[C@@H]3CCCN3C)nc3cc(-c4c(Cl)cccc4Cl)c4ccoc4c23)CC1 [Compound B59, (S)-1-(4-(4-(2,6-dichlorophenyl)-7-((1-methylpyrrolidin-2-yl)methoxy)furo[2,3-f]quinazolin-9-yl)piperazin-1-yl)prop-2-en-1-one] | 0.745 µM
C=C(F)C(=O)N1CCN(c2nc(OC[C@]3(C)CCCN3C)nc3cc(-c4cccc5cccc(Cl)c45)c4c(c23)OCCC4)C[C@@H]1CC#N [Compound B60, 2-((S)-4-(5-(8-chloronaphthalen-1-yl)-8-(((S)-1,2-dimethylpyrrolidin-2-yl)methoxy)-3,4-dihydro-2H-pyrano[2,3-f]quinazolin-10-yl)-1-(2-fluoroacryloyl)piperazin-2-yl)acetonitrile] | 0.252 µM
C=C(F)C(=O)N1CCN(c2nc(O[C@@H]3CCCC[C@H]3N(C)C)nc3cc(-c4cccc5cccc(Cl)c45)c4c(c23)OCCC4)C[C@@H]1CC#N [Compound B61, 2-((S)-4-(5-(8-chloronaphthalen-1-yl)-8-(((1R,2R)-2-(dimethylamino)cyclohexyl)oxy)-3,4-dihydro-2H-pyrano[2,3-f]quinazolin-10-yl)-1-(2-fluoroacryloyl)piperazin-2-yl)acetonitrile] | 0.186 µM
C=CC(=O)N1C[C@H](C)N(c2nc(OC[C@@H]3CCCN3C)nc3cc(-c4c(Cl)c(C)cc5[nH]ncc45)c4ccoc4c23)C[C@H]1C [Compound B62, 1-((2R,5S)-4-(4-(5-chloro-6-methyl-1H-indazol-4-yl)-7-(((S)-1-methylpyrrolidin-2-yl)methoxy)furo[2,3-f]quinazolin-9-yl)-2,5-dimethylpiperazin-1-yl)prop-2-en-1-one] | 0.642 µM
C=CC(=O)N1CCN(c2nc(OC[C@@H]3CCCN3C)nc3cc(-c4cccc5cccc(Cl)c45)c4c(c23)OCCC4)[C@@H](C)C1 [Compound B63, 1-((S)-4-(5-(8-chloronaphthalen-1-yl)-8-(((S)-1-methylpyrrolidin-2-yl)methoxy)-3,4-dihydro-2H-pyrano[2,3-f]quinazolin-10-yl)-3-methylpiperazin-1-yl)prop-2-en-1-one] | 0.148 µM
C=C(F)C(=O)N1CCN(c2nc(OC3CN(C)C3)nc3cc(-c4cccc5cccc(Cl)c45)c4c(c23)OCCC4)C[C@@H]1CC#N [Compound B64, (S)-2-(4-(5-(8-chloronaphthalen-1-yl)-8-((1-methylazetidin-3-yl)oxy)-3,4-dihydro-2H-pyrano[2,3-f]quinazolin-10-yl)-1-(2-fluoroacryloyl)piperazin-2-yl)acetonitrile] | 0.247 µM
C=C(F)C(=O)N1CCN(c2nc(OC[C@@H]3C[C@@H](F)CN3C)nc3cc(-c4cccc5cccc(Cl)c45)c4ccoc4c23)C[C@@H]1CC#N [Compound B65, 2-((S)-4-(4-(8-chloronaphthalen-1-yl)-7-(((2S,4R)-4-fluoro-1-methylpyrrolidin-2-yl)methoxy)furo[2,3-f]quinazolin-9-yl)-1-(2-fluoroacryloyl)piperazin-2-yl)acetonitrile] | 0.03 µM
C=C(F)C(=O)N1CCN(c2nc(OC[C@@H]3CCCN3C)nc3cc(-c4cccc5cccc(Cl)c45)c4c(c23)OCCC4)C[C@@H]1CC#N [Compound B66, 2-((S)-4-(5-(8-chloronaphthalen-1-yl)-8-(((S)-1-methylpyrrolidin-2-yl)methoxy)-3,4-dihydro-2H-pyrano[2,3-f]quinazolin-10-yl)-1-(2-fluoroacryloyl)piperazin-2-yl)acetonitrile] | 0.0093 µM
C=C(F)C(=O)N1CCN(c2nc(OC3COCC3N(C)C)nc3cc(-c4cccc5cccc(Cl)c45)c4c(c23)OCCC4)C[C@@H]1CC#N (stereo partly drawn) [Compound B69, 2-((2S)-4-(5-(8-chloronaphthalen-1-yl)-8-((4-(dimethylamino)tetrahydrofuran-3-yl)oxy)-3,4-dihydro-2H-pyrano[2,3-f]quinazolin-10-yl)-1-(2-fluoroacryloyl)piperazin-2-yl)acetonitrile] | 1.22 µM
